Tested on: OCI-LY10 (PI3Kδ dependent) cells
Assay: OCI-LY10 cell proliferation assay (MTS)
Assay type: cell-based
Settings: inhibition of OCI-LY10 cells proliferation, 72 h incubation, MTS readout at 490 nm
Experimental: MTS testing kit was purchased from Promega (Madison, WI, USA). The RPMI-1640, Fetal bovine serum and Penicillin-Streptomycin were purchased from BI (Biological Industries, Beit Haemek, Israel). Dimethyl sulfoxide (DMSO) was purchased from Sigma (St. Louis., MO, USA). OCI-LY10 cells were cultured in RPMI1640 supplemented with Penicillin-Streptomycin and 10% FBS.
To investigate whether a compound is able to inhibit the activity of PI3Kδ in cells, a mechanism-based assay using OCI-LY10 (PI3Kδ dependent) cells was developed. In this assay, inhibition of PI3Kδ was detected by the inhibition of OCI-LY10 cells proliferation. Cells were plated into 96-well plates at a density of 10000 cells/well. Plates were incubated at 37° C., with 5 % CO2 for 4 h. Compounds were serially diluted and added to the plates with the final compound concentrations as 10000, 3333.3, 1111.1, […], 123.5, 41.2, 13.7, 4.6 and 1.5 nM. Plates were incubated at 37° C., with 5 % CO2 for 72 h. 20 µl MTS was added into each well and the plates were incubated at 37° C., with 5 % CO2 for exactly 2 h. The absorbance was measured by a microplate reader at 490 nm. IC50 was calculated using GraphPad Prism 5.0 software.

Row | IC50 (Homo sapiens, OCI-Ly10, 72 h) [nM] | Structure (SMILES) | IC50 [nM]
1 | – | Cc1csc2cc(C(C)n3nc(-c4ccc(OC(C)C)c(F)c4)c4c(N)ncnc43)c(-c3ccccc3)c(=O)n12 (centres unmarked) [Example 2, 7-(1-(4-amino-3-(3-fluoro-4-isopropoxyphenyl)-1H-pyrazolo[3,4-d]pyrimidin-1-yl)ethyl)-3-methyl-6-phenyl-5H-thiazolo[3,2-a]pyridin-5-one] | 2
2 | 1 | Cc1csc2cc([C@H](C)n3nc(-c4ccc(OC(C)C)c(F)c4)c4c(N)ncnc43)c(-c3ccccc3)c(=O)n12 [Example 2-S, (S)-7-(1-(4-amino-3-(3-fluoro-4-isopropoxyphenyl)-1H-pyrazolo[3,4-d]pyrimidin-1-yl)ethyl)-3-methyl-6-phenyl-5H-thiazolo[3,2-a]pyridin-5-one] | –
3 | 1 | CC(C)Oc1ccc(-c2nn([C@@H](C)c3cc4scc(Cl)n4c(=O)c3-c3cccc(F)c3)c3ncnc(N)c23)cc1F [Example 3, (S)-7-(1-(4-amino-3-(3-fluoro-4-isopropoxyphenyl)-1H-pyrazolo[3,4-d]pyrimidin-1-yl)ethyl)-3-chloro-6-(3-fluorophenyl)-5H-thiazolo[3,2-a]pyridin-5-one] | –
4 | 1 | CC(C)Oc1ccc(-c2nn([C@@H](C)c3cc4scc(Cl)n4c(=O)c3-c3ccccc3)c3ncnc(N)c23)cc1F [Example 4, (S)-7-(1-(4-amino-3-(3-fluoro-4-isopropoxyphenyl)-1H-pyrazolo[3,4-d]pyrimidin-1-yl)ethyl)-3-chloro-6-phenyl-5H-thiazolo[3,2-a]pyridin-5-one] | –
5 | 1 | COc1ccc(-c2nn([C@@H](C)c3cc4scc(C)n4c(=O)c3-c3cccc(F)c3)c3ncnc(N)c23)cc1NS(C)(=O)=O [Example 5, (S)-N-(5-(4-amino-1-(1-(6-(3-fluorophenyl)-3-methyl-5-oxo-5H-thiazolo[3,2-a]pyridin-7-yl)ethyl)-1H-pyrazolo[3,4-d]pyrimidin-3-yl)-2-methoxyphenyl)methanesulfonamide] | –
6 | 1 | COc1ccc(-c2nn([C@@H](C)c3cc4scc(C)n4c(=O)c3-c3ccccc3)c3ncnc(N)c23)cc1NS(C)(=O)=O [Example 6, (S)-N-(5-(4-amino-1-(1-(3-methyl-5-oxo-6-phenyl-5H-thiazolo[3,2-a]pyridin-7-yl)ethyl)-1H-pyrazolo[3,4-d]pyrimidin-3-yl)-2-methoxyphenyl)meth anesulfonamide] | –
7 | 4 | Cc1csc2nc([C@H](C)n3nc(-c4ccc(OC(C)C)c(F)c4)c4c(N)ncnc43)c(-c3cccc(F)c3)c(=O)n12 [Example 7, (S)-7-(1-(4-amino-3-(3-fluoro-4-isopropoxyphenyl)-1H-pyrazolo[3,4-d]pyrimidin-1-yl)ethyl)-6-(3-fluorophenyl)-3-methyl-5H-thiazolo[3,2-a]pyrimidin-5-one] | –
8 | 6 | Cc1csc2nc([C@H](C)n3nc(-c4ccc(OC(C)C)c(F)c4)c4c(N)ncnc43)c(-c3ccccc3)c(=O)n12 [Example 8, (S)-7-(1-(4-amino-3-(3-fluoro-4-isopropoxyphenyl)-1H-pyrazolo[3,4-d]pyrimidin-1-yl)ethyl)-3-methyl-6-phenyl-5H -thiazolo[3,2-a]pyrimidin-5-one] | –
9 | 1 | CC(C)Oc1ccc(-c2nn([C@H](c3cc4scc(Cl)n4c(=O)c3-c3cccc(F)c3)C3CC3)c3ncnc(N)c23)cc1F [Example 11, (S)-7-((4-amino-3-(3-fluoro-4-isopropoxyphenyl)-1H-pyrazolo[3,4-d]pyrimidin-1-yl)(cyclopropyl)methyl)-3-chlor o-6-(3-fluorophenyl)-5H-thiazolo[3,2-a]pyridin-5-one] | –
10 | 18 | C[C@@H](c1cc2scc(Cl)n2c(=O)c1-c1cccc(F)c1)n1nc(-c2ccc(OC3CC3)c(F)c2)c2c(N)ncnc21 [Example 12, (S)-7-(1-(4-amino-3-(4-cyclopropoxy-3-fluorophenyl)-1H-pyrazolo[3,4-d]pyrimidin-1-yl)ethyl)-3-chloro-6-(3-fluor ophenyl)-5H-thiazolo[3,2-a]pyridin-5-one] | –
11 | 15 | C[C@@H](c1cc2scc(Cl)n2c(=O)c1-c1ccccc1)n1nc(-c2ccc(OC3CC3)c(F)c2)c2c(N)ncnc21 [Example 13, (S)-7-(1-(4-amino-3-(4-cyclopropoxy-3-fluorophenyl)-1H-pyrazolo[3,4-d]pyrimidin-1-yl)ethyl)-3-chloro-6-phenyl-5H-thiazolo[3,2-a]pyridin-5-one] | –
12 | 1 | Cc1csc2cc([C@H](C)n3nc(-c4ccc(OC(F)F)c(F)c4)c4c(N)ncnc43)c(-c3cccc(F)c3)c(=O)n12 [Example 14, (S)-7-(1-(4-amino-3-(4-(difluoromethoxy)-3-fluorophenyl)-1H-pyrazolo[3,4-d]pyrimidin-1-yl)ethyl)-6-(3-fluorophenyl)-3-methyl-5H-thiazolo[3,2-a]pyrid in-5-one] | –
13 | 1 | Cc1csc2cc([C@H](C)n3nc(-c4ccc(OC(F)F)c(F)c4)c4c(N)ncnc43)c(-c3ccccc3)c(=O)n12 [Example 15, (S)-7-(1-(4-amino-3-(4-(difluoromethoxy)-3-fluorophenyl)-1H-pyrazolo[3,4-d]pyrimidin-1-yl)ethyl)-3-methyl-6-ph enyl-5H-thiazolo[3,2-a]pyridin-5-one] | –
14 | 26 | Cc1csc2cc([C@H](C)n3nc(-c4ccc(OC5CC5)c(F)c4)c4c(N)ncnc43)c(-c3cccc(F)c3)c(=O)n12 [Example 16, (S)-7-(1-(4-amino-3-(4-cyclopropoxy-3-fluorophenyl)-1H-pyrazolo[3,4-d]pyrimidin-1-yl)ethyl)-6-(3-fluorophenyl) -3-methyl-5H-thiazolo[3,2-a]pyridin-5-one] | –
15 | – | Cc1csc2cc([C@H](C)n3nc(-c4ccc(OC5CC5)c(F)c4)c4c(N)ncnc43)c(-c3ccccc3)c(=O)n12 [Example 17, (S)-7-(1-(4-amino-3-(4-cyclopropoxy-3-fluoropheny1)-1H-pyrazolo[3,4-d]pyrimidin-1-yl)ethyl)-3-methyl-6-phenyl-5H-thiazolo[3,2-a]pyridin-5-one] | 65
16 | 1 | Cc1csc2cc([C@H](C)n3nc(-c4ccc(OC(C)C)nc4)c4c(N)ncnc43)c(-c3ccccc3)c(=O)n12 [Example 18, (S)-7-(1-(4-amino-3-(6-isopropoxypyridin-3-yl)-1H-pyrazolo[3,4-d]pyrimidin-1-yl)ethyl)-3-methyl-6-phenyl-5H-thi azolo[3,2-a]pyridin-5-one] | –
17 | 1 | Cc1csc2cc([C@H](C)n3nc(-c4ccc(OC(C)C)nc4)c4c(N)ncnc43)c(-c3cccc(F)c3)c(=O)n12 [Example 19, (S)-7-(1-(4-amino-3-(6-isopropoxypyridin-3-yl)-1H-pyrazolo[3,4-d]pyrimidin-1-yl)ethyl)-6-(3-fluorophenyl)-3-methyl-5H-thiazolo[3,2-a]pyridin-5-one] | –
18 | 1 | Cc1csc2cc([C@H](C)n3nc(-c4cnc(OC(C)C)c(F)c4)c4c(N)ncnc43)c(-c3ccccc3)c(=O)n12 [Example 20, (S)-7-(1-(4-amino-3-(5-fluoro-6-isopropoxypyridin-3-yl)-1H-pyrazolo[3,4-d]pyrimidin-1-yl)ethyl)-3-methyl-6-phenyl-5H-thiazolo[3,2-a]pyridin-5-one] | –
19 | 1 | Cc1csc2cc([C@H](C)n3nc(-c4cnc(OC(C)C)c(F)c4)c4c(N)ncnc43)c(-c3cccc(F)c3)c(=O)n12 [Example 21, (S)-7-(1-(4-amino-3-(5-fluoro-6-isopropoxypyridin-3-yl)-1H-pyrazolo[3,4-d]pyrimidin-1-yl)ethyl)-6-(3-fluorophenyl)-3-methyl-5H-thiazolo[3,2-a]pyridi n-5-one] | –
20 | 40 | COc1ccc(-c2nn([C@@H](C)c3cc4scc(Cl)n4c(=O)c3-c3ccccc3)c3ncnc(N)c23)cc1NS(C)(=O)=O [Example 44, (S)-N-(5-(4-amino-1-(1-(3-chloro-5-oxo-6-phenyl-5H-thiazolo[3,2-a]pyridin-7-yl)ethyl)-1H-pyrazolo[3,4-d]pyrimidin-3-yl)-2-methoxyphenyl)methanesul fonamide] | –
21 | 41 | COc1ccc(-c2nn([C@@H](C)c3cc4scc(Cl)n4c(=O)c3-c3cccc(F)c3)c3ncnc(N)c23)cc1NS(C)(=O)=O [Example 45, (S)-N-(5-(4-amino-1-(1-(3-chloro-6-(3-fluorophenyl)-5-oxo-5H-thiazolo[3,2-a]pyridin-7-yl)ethyl)-1H-pyrazolo[3,4-d]pyrimidin-3-yl)-2-methoxyphenyl)m ethanesulfonamide] | –
22 | – | C[C@@H](c1cc2scc(Cl)n2c(=O)c1-c1cccc(F)c1)n1nc(-c2ccc(OC(F)F)c(F)c2)c2c(N)ncnc21 [Example 66, (S)-7-(1-(4-amino-3-(4-(difluoromethoxy)-3-fluorophenyl)-1H-pyrazolo[3,4-d]pyrimidin-1-yl)ethyl)-3-chloro-6-(3-fluorophenyl)-5H-thiazolo[3,2-α]pyrid in-5-one] | 5
23 | – | C[C@@H](c1cc2scc(Cl)n2c(=O)c1-c1ccccc1)n1nc(-c2ccc(OC(F)F)c(F)c2)c2c(N)ncnc21 [Example 67, (S)-7-(1-(4-amino-3-(4-(difluoromethoxy)-3-fluorophenyl)-1H-pyrazolo[3,4-d]pyrimidin-1-yl)ethyl)-3-chloro-6-ph enyl-5H-thiazolo[3,2-α]pyridin-5-one] | 1
